Reference: the supplement of paper PMC10307832

Columns and labels:
Assay in all cases: relative viability (nuclei count vs DMSO), 5 days (fraction); higher = more cells survive
[1] = test system: SW 1573
Procedure, shortened: (§1)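 Five library-drug doses in √10 steps were combined with a fixed anchor-drug dose, or a single drug was given alone, by pin tool to lung cancer cell lines in 1536-well plates the day after seeding. Nuclei were stained and counted after 5 days. Relative viability is the nuclei count in treated wells over that in vehicle wells, taken as the median of duplicate plates.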

[2] = test system: RERF-LC-KJ
Procedure, shortened: as §1

[3] = test system: NCI-H2347
Procedure, shortened: as §1

[4] = test system: EMC-BAC-2
Procedure, shortened: as §1

[5] = test system: NCI-H838
Procedure, shortened: as §1

[6] = test system: NCI-H596
Procedure, shortened: as §1

[7] = test system: HCC-366
Procedure, shortened: as §1

[8] = test system: NCI-H3122
Procedure, shortened: as §1

[9] = test system: NCI-H2228
Procedure, shortened: as §1

[10] = test system: PC-14
Procedure, shortened: as §1

[11] = test system: NCI-H2405
Procedure, shortened: as §1

[12] = test system: HCC-78
Procedure, shortened: as §1

[13] = test system: CAL-12T
Procedure, shortened: as §1

[14] = test system: NCI-H2009
Procedure, shortened: as §1

[15] = test system: NCI-H1993
Procedure, shortened: as §1

[16] = test system: LC-2-ad
Procedure, shortened: as §1

[17] = test system: ChaGo-K-1
Procedure, shortened: as §1

[18] = test system: NCI-H2085
Procedure, shortened: as §1

[19] = test system: HOP-62
Procedure, shortened: as §1

[20] = test system: NCI-H1355
Procedure, shortened: as §1

[21] = test system: NCI-H1734
Procedure, shortened: as §1

O=c1[nH]c2ccccc2n1C1CCN(CCCC(c2ccc(F)cc2)c2ccc(F)cc2)CC1 [Pimozide] + CC(C)C[C@H](NC(=O)[C@H](Cc1ccccc1)NC(=O)c1cnccn1)B(O)O [Bortezomib] (partner 0.002 µM) gave a relative viability ([1]; first compound 0.08 µM) of 1.09, a relative viability ([1]; first compound 0.253 µM) of 1.02 and a relative viability ([1]; first compound 0.8 µM) of 0.898. It also gave a relative viability ([1]; first compound 2.53 µM) of 0.894, a relative viability ([1]; first compound 8 µM) of 0.963 and a relative viability ([2]; first compound 0.08 µM) of 1.1. For the same compound, the relative viability ([2]; first compound 0.253 µM) was 0.92, the relative viability ([2]; first compound 0.8 µM) was 0.949 and the relative viability ([2]; first compound 2.53 µM) was 1.02. The relative viability ([2]; first compound 8 µM) was 0.92, the relative viability ([3]; first compound 0.08 µM) was 1 and the relative viability ([3]; first compound 0.253 µM) was 0.858. It also gave a relative viability ([3]; first compound 0.8 µM) of 0.748, a relative viability ([3]; first compound 2.53 µM) of 0.955 and a relative viability ([3]; first compound 8 µM) of 0.883. The relative viability ([4]; first compound 0.08 µM) was 0.992, the relative viability ([4]; first compound 0.253 µM) was 1.03 and the relative viability ([4]; first compound 0.8 µM) was 0.972. For the same compound, the relative viability ([4]; first compound 2.53 µM) was 1.04, the relative viability ([4]; first compound 8 µM) was 1.05 and the relative viability ([5]; first compound 0.08 µM) was 0.786. It also gave a relative viability ([5]; first compound 0.253 µM) of 0.737, a relative viability ([5]; first compound 0.8 µM) of 0.786 and a relative viability ([5]; first compound 2.53 µM) of 0.745. It also gave a relative viability ([5]; first compound 8 µM) of 0.684, a relative viability ([6]; first compound 0.08 µM) of 0.974 and a relative viability ([6]; first compound 0.253 µM) of 0.968. For the same compound, the relative viability ([6]; first compound 0.8 µM) was 1, the relative viability ([6]; first compound 2.53 µM) was 0.994 and the relative viability ([6]; first compound 8 µM) was 0.935. The relative viability ([7]; first compound 0.08 µM) was 1.01, the relative viability ([7]; first compound 0.253 µM) was 0.999 and the relative viability ([7]; first compound 0.8 µM) was 0.985. For the same compound, the relative viability ([7]; first compound 2.53 µM) was 1.03, the relative viability ([7]; first compound 8 µM) was 1.01 and the relative viability ([8]; first compound 0.08 µM) was 0.983. It also gave a relative viability ([8]; first compound 0.253 µM) of 0.959, a relative viability ([8]; first compound 0.8 µM) of 1.01 and a relative viability ([8]; first compound 2.53 µM) of 0.981. It also gave a relative viability ([8]; first compound 8 µM) of 1.01, a relative viability ([9]; first compound 0.08 µM) of 1.11 and a relative viability ([9]; first compound 0.253 µM) of 0.858. It also gave a relative viability ([9]; first compound 0.8 µM) of 0.904, a relative viability ([9]; first compound 2.53 µM) of 0.728 and a relative viability ([9]; first compound 8 µM) of 0.559. For the same compound, the relative viability ([10]; first compound 0.08 µM) was 0.855, the relative viability ([10]; first compound 0.253 µM) was 0.812 and the relative viability ([10]; first compound 0.8 µM) was 0.844. It also gave a relative viability ([10]; first compound 2.53 µM) of 0.912, a relative viability ([10]; first compound 8 µM) of 0.81 and a relative viability ([11]; first compound 0.08 µM) of 0.761. The relative viability ([11]; first compound 0.253 µM) was 0.979, the relative viability ([11]; first compound 0.8 µM) was 0.979 and the relative viability ([11]; first compound 2.53 µM) was 0.896. The relative viability ([11]; first compound 8 µM) was 0.984, the relative viability ([12]; first compound 0.08 µM) was 0.408 and the relative viability ([12]; first compound 0.253 µM) was 0.417. It also gave a relative viability ([12]; first compound 0.8 µM) of 0.409, a relative viability ([12]; first compound 2.53 µM) of 0.443 and a relative viability ([12]; first compound 8 µM) of 0.336. For the same compound, the relative viability ([13]; first compound 0.08 µM) was 0.875, the relative viability ([13]; first compound 0.253 µM) was 0.979 and the relative viability ([13]; first compound 0.8 µM) was 0.821. The relative viability ([13]; first compound 2.53 µM) was 0.87, the relative viability ([13]; first compound 8 µM) was 0.828 and the relative viability ([14]; first compound 0.08 µM) was 0.999. The relative viability ([14]; first compound 0.253 µM) was 0.999, the relative viability ([14]; first compound 0.8 µM) was 0.879 and the relative viability ([14]; first compound 2.53 µM) was 0.888. For the same compound, the relative viability ([14]; first compound 8 µM) was 0.769, the relative viability ([15]; first compound 0.08 µM) was 0.89 and the relative viability ([15]; first compound 0.253 µM) was 1.03. It also gave a relative viability ([15]; first compound 0.8 µM) of 0.986, a relative viability ([15]; first compound 2.53 µM) of 1.07 and a relative viability ([15]; first compound 8 µM) of 1.01. It also gave a relative viability ([16]; first compound 0.08 µM) of 1.09, a relative viability ([16]; first compound 0.253 µM) of 0.927 and a relative viability ([16]; first compound 0.8 µM) of 0.935. For the same compound, the relative viability ([16]; first compound 2.53 µM) was 1.03, the relative viability ([16]; first compound 8 µM) was 0.996 and the relative viability ([17]; first compound 0.08 µM) was 1.01. It also gave a relative viability ([17]; first compound 0.253 µM) of 0.883, a relative viability ([17]; first compound 0.8 µM) of 0.977 and a relative viability ([17]; first compound 2.53 µM) of 1.01. The relative viability ([17]; first compound 8 µM) was 0.872, the relative viability ([18]; first compound 0.08 µM) was 0.972 and the relative viability ([18]; first compound 0.253 µM) was 1.01. For the same compound, the relative viability ([18]; first compound 0.8 µM) was 1.04, the relative viability ([18]; first compound 2.53 µM) was 1.13 and the relative viability ([18]; first compound 8 µM) was 0.741. For the same compound, the relative viability ([19]; first compound 0.08 µM) was 0.935, the relative viability ([19]; first compound 0.253 µM) was 0.889 and the relative viability ([19]; first compound 2.53 µM) was 0.749. The relative viability ([19]; first compound 8 µM) was 1.02, the relative viability ([20]; first compound 0.08 µM) was 1.18 and the relative viability ([20]; first compound 0.253 µM) was 1.2. It also gave a relative viability ([20]; first compound 0.8 µM) of 1.05, a relative viability ([20]; first compound 2.53 µM) of 1.19 and a relative viability ([20]; first compound 8 µM) of 1.19. It also gave a relative viability ([21]; first compound 0.08 µM) of 0.903, a relative viability ([21]; first compound 0.253 µM) of 0.958 and a relative viability ([21]; first compound 0.8 µM) of 0.916. The relative viability ([21]; first compound 2.53 µM) was 0.993 and the relative viability ([21]; first compound 8 µM) was 0.844.
